According to patent publication US20230174484A1, “ANTAGONISTS OF GPR39 PROTEIN” (Oregon Health & Science University, priority 2020, published 2023):
Where a name gives a salt, the structure may show the parent alone.

Molecular target: T1, human GPR39 receptor (Homo sapiens, UniProt O43194)
T1 construct: PC3 Cells, Expressing the Endogenous Human GPR39 Receptor; endogenous in cells; host or cells: PC3 (human prostate adenocarcinoma) cells
T1 sequence (O43194 1-453): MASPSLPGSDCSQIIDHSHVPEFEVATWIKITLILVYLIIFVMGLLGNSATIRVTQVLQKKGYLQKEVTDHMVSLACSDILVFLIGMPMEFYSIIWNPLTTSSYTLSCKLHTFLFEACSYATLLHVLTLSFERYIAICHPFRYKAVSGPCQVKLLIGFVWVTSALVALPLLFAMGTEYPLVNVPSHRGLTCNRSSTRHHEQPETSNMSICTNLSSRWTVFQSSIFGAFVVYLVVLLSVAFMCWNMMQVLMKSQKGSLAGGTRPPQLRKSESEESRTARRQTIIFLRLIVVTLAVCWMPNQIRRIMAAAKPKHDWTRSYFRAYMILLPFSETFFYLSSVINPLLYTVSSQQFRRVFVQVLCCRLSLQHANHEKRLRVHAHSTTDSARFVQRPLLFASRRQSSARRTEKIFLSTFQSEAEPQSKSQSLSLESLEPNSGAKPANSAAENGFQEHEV
Assay: Measurement of intracellular calcium response in PC3 cells (FLIPR), antagonism of the C3 agonist response
Format: cell-based
Settings: functional pKi (modified Cheng-Prusoff), inhibition of the C3 (TC-G 1008) response at EC90, 30 μM ZnCl2, read-out: fpKi activity
Method in brief: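 Potency was reported as fpKi, converted by modified Cheng-Prusoff from four-parameter IC50 fits against an EC90 C3 agonist challenge. Calcium-6 FLIPR readings used PC3 cells naturally expressing human GPR39, in pH 7.4 HEPES buffer containing 30 μM final ZnCl2. Score bands: +/± <5.2, + 5.2–5.9, ++ 6.0–6.5, +++ 6.6–7.2, ++++ ≥7.3.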

Row | SMILES | Ki
1 | CC1CCN(c2cc(NC(=O)C3CC3)ccc2C(=O)N2CCN(C)CC2c2ccccc2)C1 (single isomer, unassigned) [Example 64a, (2S, 3R) or (2R, 3S) or (2R, 3R) or (2S, 3S) N-[4-(4-methyl-2-phenylpiperazine-1-carbonyl)-3-(3-methylpyrrolidin-1-yl)phenyl] cyclopropanecarboxamide] | ≤ 50.1 nM
2 | CC1CCN(c2cc(NC(=O)C3CC3)ccc2C(=O)N2CCN(C)CC2c2ccccc2)C1 (single isomer, unassigned) [Example 64b, (2S, 3R) or (2R, 3S) or (2R, 3R) or (2S, 3S) N-[4-(4-methyl-2-phenylpiperazine-1-carbonyl)-3-(3-methylpyrrolidin-1-yl)phenyl] cyclopropanecarboxamide] | 1260 to 6310 nM
3 | CC1CCN(c2cc(NC(=O)C3CC3)ccc2C(=O)N2CCN(C)CC2c2ccccc2)C1 (single isomer, unassigned) [Example 64c, (2S, 3R) or (2R, 3S) or (2R, 3R) or (2S, 3S) N-[4-(4-methyl-2-phenylpiperazine-1-carbonyl)-3-(3-methylpyrrolidin-1-yl)phenyl] cyclopropanecarboxamide] | ≤ 50.1 nM
4 | CC1CCN(c2cc(NC(=O)C3CC3)ccc2C(=O)N2CCN(C)CC2c2ccccc2)C1 (single isomer, unassigned) [Example 64d, (2S, 3R) or (2R, 3S) or (2R, 3R) or (2S, 3S) N-[4-(4-methyl-2-phenylpiperazine-1-carbonyl)-3-(3-methylpyrrolidin-1-yl)phenyl] cyclopropanecarboxamide] | 316 to 1000 nM
5 | CN1CCN(C(=O)c2ccc(NC(=O)C3CC3)cc2N2CCC3(CCC3)C2)C(c2ccccc2)C1 (single isomer, unassigned) [Example 66a, N-[3-(6-azaspiro[3.4]octan-6-yl)-4-(4-methyl-2-phenylpiperazine-1-carbonyl)phenyl]cyclopropanecarboxamide] | ≤ 50.1 nM
6 | CN1CCN(C(=O)c2ccc(NC(=O)C3CC3)cc2N2CCC3(CCC3)C2)C(c2ccccc2)C1 (single isomer, unassigned) [Example 66b, N-[3-(6-azaspiro[3.4]octan-6-yl)-4-(4-methyl-2-phenylpiperazine-1-carbonyl)phenyl]cyclopropanecarboxamide] | 316 to 1000 nM
7 | CC1CC(C)CN(c2cc(NC(=O)C3CC3)ccc2C(=O)N2CCN(C)CC2c2ccccc2)C1 (single isomer, unassigned) [Example 68a, Syn 2R or 2S N-[3-[3,5-dimethylpiperidin-1-yl]-4-(4-methyl-2-phenylpiperazine-1-carbonyl)phenyl] cyclopropanecarboxamide] | ≤ 50.1 nM
8 | CC1CC(C)CN(c2cc(NC(=O)C3CC3)ccc2C(=O)N2CCN(C)CC2c2ccccc2)C1 (single isomer, unassigned) [Example 68b, Syn 2R or 2S N-[3-[3,5-dimethylpiperidin-1-yl]-4-(4-methyl-2-phenylpiperazine-1-carbonyl)phenyl] cyclopropanecarboxamide] | 316 to 1000 nM
9 | CC1CC(C)CN(c2cc(NC(=O)C3CC3)ccc2C(=O)N2CCN(C)CC2c2ccccc2)C1 (single isomer, unassigned) [Example 68d, Anti N-[3-[3,5-dimethylpiperidin-1-yl]-4-(4-methyl-2-phenylpiperazine-1-carbonyl)phenyl]cyclopropanecarboxamide] | 63.1 to 251 nM
10 | CC1CC(C)CN(c2cc(NC(=O)C3CC3)ccc2C(=O)N2CCN(C)CC2c2ccccc2)C1 (single isomer, unassigned) [Example 68e, Anti N-[3-[3,5-dimethylpiperidin-1-yl]-4-(4-methyl-2-phenylpiperazine-1-carbonyl)phenyl]cyclopropanecarboxamide] | 63.1 to 251 nM
11 | CC1CC(C)CN(c2cc(NC(=O)C3CC3)ccc2C(=O)N2CCN(C)CC2c2ccccc2)C1 (single isomer, unassigned) [Example 68f, Syn 2R or 2S N-[3-[3,5-dimethylpiperidin-1-yl]-4-(4-methyl-2-phenylpiperazine-1-carbonyl)phenyl]cyclopropanecarboxamide hydrochloride] | ≤ 50.1 nM
12 | CN1CCN(C(=O)c2ccc(NC(=O)C3CC3)cc2N2CCCCCC2)C(c2cccs2)C1 (single isomer, unassigned) [Example 69a, N-(3-(azepan-1-yl)-4-(4-methyl-2-(thiophen-2-yl)piperazine-1-carbonyl)phenyl) cyclopropane carboxamide] | 1260 to 6310 nM
13 | CN1CCN(C(=O)c2ccc(NC(=O)C3CC3)cc2N2CCCCCC2)C(c2cccs2)C1 (single isomer, unassigned) [Example 69b, N-(3-(azepan-1-yl)-4-(4-methyl-2-(thiophen-2-yl)piperazine-1-carbonyl)phenyl) cyclopropane carboxamide] | ≤ 50.1 nM
14 | CN1CCN(C(=O)c2ccc(NC(=O)C3CC3)cc2N2CCCCCC2)C(c2ccsc2)C1 (single isomer, unassigned) [Example 70a, N-(3-(azepan-1-yl)-4-(4-methyl-2-(thiophen-3-yl)piperazine-1-carbonyl)phenyl)cyclopropane carboxamide] | 1260 to 6310 nM
15 | CN1CCN(C(=O)c2ccc(NC(=O)C3CC3)cc2N2CCCCCC2)C(c2ccsc2)C1 (single isomer, unassigned) [Example 70b, N-(3-(azepan-1-yl)-4-(4-methyl-2-(thiophen-3-yl)piperazine-1-carbonyl)phenyl)cyclopropane carboxamide] | ≤ 50.1 nM
16 | CCCN1CCN(C(=O)c2ccc(NC(=O)C3CC3)cc2N2CCCCCC2)C(c2ccccc2)C1 (single isomer, unassigned) [Example 73a, N-[3-(azepan-1-yl)-4-(2-phenyl-4-propylpiperazine-1-carbonyl)phenyl]Cyclopropanecarboxamide] | ≤ 50.1 nM
17 | CCCN1CCN(C(=O)c2ccc(NC(=O)C3CC3)cc2N2CCCCCC2)C(c2ccccc2)C1 (single isomer, unassigned) [Example 73b, N-[3-(azepan-1-yl)-4-(2-phenyl-4-propylpiperazine-1-carbonyl)phenyl]Cyclopropanecarboxamide] | 1260 to 6310 nM
18 | CN1CCN(C(=O)c2ccc(NC(=O)C3CC3)cc2N2CCCC2)C(c2ccccc2F)C1 (single isomer, unassigned) [Example 84a, N-[4-[2-(2-fluorophenyl)-4-methylpiperazine-1-carbonyl]-3-pyrrolidin-1-ylphenyl]cyclopropanecarboxamide] | 63.1 to 251 nM
19 | CN1CCN(C(=O)c2ccc(NC(=O)C3CC3)cc2N2CCCC2)C(c2ccccc2F)C1 (single isomer, unassigned) [Example 84b, N-[4-[2-(2-fluorophenyl)-4-methylpiperazine-1-carbonyl]-3-pyrrolidin-1-ylphenyl]cyclopropanecarboxamide] | 1260 to 6310 nM
20 | CN1CCN(C(=O)c2ccc(NC(=O)C3CC3)cc2N2CCCC2)C(c2cccs2)C1 (single isomer, unassigned) [Example 86a, N-[4-(4-methyl-2-thiophen-2-ylpiperazine-1-carbonyl)-3-pyrrolidin-1-ylphenyl]cyclopropanecarboxamide] | 1260 to 6310 nM
21 | CN1CCN(C(=O)c2ccc(NC(=O)C3CC3)cc2N2CCCC2)C(c2cccs2)C1 (single isomer, unassigned) [Example 86b, N-[4-(4-methyl-2-thiophen-2-ylpiperazine-1-carbonyl)-3-pyrrolidin-1-ylphenyl]cyclopropanecarboxamide] | ≤ 50.1 nM
22 | CN1CCN(C(=O)c2ccc(NC(=O)C3CC3)cc2N2CCCC2)C(c2cccc(F)c2)C1 (single isomer, unassigned) [Example 88a, N-[4-[2-(3-fluorophenyl)-4-methylpiperazine-1-carbonyl]-3-pyrrolidin-1-ylphenyl]cyclopropanecarboxamide] | 63.1 to 251 nM
23 | CN1CCN(C(=O)c2ccc(NC(=O)C3CC3)cc2N2CCCC2)C(c2cccc(F)c2)C1 (single isomer, unassigned) [Example 88b, N-[4-[2-(3-fluorophenyl)-4-methylpiperazine-1-carbonyl]-3-pyrrolidin-1-ylphenyl]cyclopropanecarboxamide] | 1260 to 6310 nM
24 | CN1CCN(C(=O)c2ccc(NC(=O)C3CC3)nc2N2CCC(F)(F)C2)C(c2ccccc2)C1 (single isomer, unassigned) [Example 148a, (2R or 2S) N-[6-(3,3-difluoropyrrolidin-1-yl)-5-(4-methyl-2-phenylpiperazine-1-carbonyl)pyridin-2-yl]cyclopropanecarboxamide] | 63.1 to 251 nM
25 | CN1CCN(C(=O)c2ccc(NC(=O)C3CC3)nc2N2CCCC2)C(c2ccccc2)C1 (single isomer, unassigned) [Example 149a, (2R or 2S) N-[5-(4-methyl-2-phenylpiperazine-1-carbonyl)-6-pyrrolidin-1-ylpyridin-2-yl] cyclopropanecarboxamide] | 63.1 to 251 nM
26 | CN1CCN(C(=O)c2ccc(NC(=O)C3CC3)nc2N2CCCC2)C(c2ccccc2)C1 (single isomer, unassigned) [Example 149b, (2R or 2S) N-[5-(4-methyl-2-phenylpiperazine-1-carbonyl)-6-pyrrolidin-1-ylpyridin-2-yl] cyclopropanecarboxamide] | 1260 to 6310 nM
